Literature values in patent US11660346B2, “Engineered microparticles for macromolecule delivery” (University of Pittsburgh-Of the Commonwealth System of …, priority 2009, dated 2023).

Conditions: parameter for polyanhydride disk prediction, FIG. 10

In the case of `CCCCN1CCCCC1C(=O)Nc1c(C)cccc1C` (centres unmarked) [bupivacaine], the “CAmx (maximum solubility of agent)” value (aqueous) is given as 2.184 mol/m^3 and the “kdis (intrinsic dissolution rate constant)” value is given as 0.046 mol/m^3 s.
